Consider 15 molecules from patent publication US10040781B2, “Tank-binding kinase inhibitor compounds” (Gilead Sciences, Inc., priority 2014, dated 2018).

SMILES strings stand for the structures. pIC50: −log10 of the molar value. Like-named read-outs stand apart in the source and are kept apart here. Where only a bound is given, the exact number is not on record here.

The term pIC50 denotes the IC50 on a negative log10 scale, so that one unit is a factor of ten.

Assay [1] addresses TBK1 (Homo sapiens (Human), UniProt Q9UHD2). The assay is described as follows: TBK1 TR-FRET enzymatic assay.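 Further: phosphorylation of a biotinylated Ser/Thr peptide by purified full-length recombinant TBK1, read by TR-FRET after 240 min at 25 °C, IC50 is the geometric mean of at least four runs.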 A general note: In TR-FRET formats the signal depends on donor and acceptor labels being close together.
In assay [2] the target is IKKε (Homo sapiens (Human), UniProt Q14164). Put plainly: IKKε TR-FRET enzymatic assay. The class given is biochemical. The following applies: read-out: IKKe IC50.
Assay [3] addresses hJAK2 (Homo sapiens (Human), UniProt O60674). Put plainly: hJAK2 LANCE TR-FRET enzymatic assay. The class given is biochemical. The conditions noted are these: read-out: JAK2 IC50.
The mark [4] stands for this setting: TR-FRET, 2×Km ATP, geometric mean of minimum four determinations.

Chain of hJAK2 (O60674 whole entry): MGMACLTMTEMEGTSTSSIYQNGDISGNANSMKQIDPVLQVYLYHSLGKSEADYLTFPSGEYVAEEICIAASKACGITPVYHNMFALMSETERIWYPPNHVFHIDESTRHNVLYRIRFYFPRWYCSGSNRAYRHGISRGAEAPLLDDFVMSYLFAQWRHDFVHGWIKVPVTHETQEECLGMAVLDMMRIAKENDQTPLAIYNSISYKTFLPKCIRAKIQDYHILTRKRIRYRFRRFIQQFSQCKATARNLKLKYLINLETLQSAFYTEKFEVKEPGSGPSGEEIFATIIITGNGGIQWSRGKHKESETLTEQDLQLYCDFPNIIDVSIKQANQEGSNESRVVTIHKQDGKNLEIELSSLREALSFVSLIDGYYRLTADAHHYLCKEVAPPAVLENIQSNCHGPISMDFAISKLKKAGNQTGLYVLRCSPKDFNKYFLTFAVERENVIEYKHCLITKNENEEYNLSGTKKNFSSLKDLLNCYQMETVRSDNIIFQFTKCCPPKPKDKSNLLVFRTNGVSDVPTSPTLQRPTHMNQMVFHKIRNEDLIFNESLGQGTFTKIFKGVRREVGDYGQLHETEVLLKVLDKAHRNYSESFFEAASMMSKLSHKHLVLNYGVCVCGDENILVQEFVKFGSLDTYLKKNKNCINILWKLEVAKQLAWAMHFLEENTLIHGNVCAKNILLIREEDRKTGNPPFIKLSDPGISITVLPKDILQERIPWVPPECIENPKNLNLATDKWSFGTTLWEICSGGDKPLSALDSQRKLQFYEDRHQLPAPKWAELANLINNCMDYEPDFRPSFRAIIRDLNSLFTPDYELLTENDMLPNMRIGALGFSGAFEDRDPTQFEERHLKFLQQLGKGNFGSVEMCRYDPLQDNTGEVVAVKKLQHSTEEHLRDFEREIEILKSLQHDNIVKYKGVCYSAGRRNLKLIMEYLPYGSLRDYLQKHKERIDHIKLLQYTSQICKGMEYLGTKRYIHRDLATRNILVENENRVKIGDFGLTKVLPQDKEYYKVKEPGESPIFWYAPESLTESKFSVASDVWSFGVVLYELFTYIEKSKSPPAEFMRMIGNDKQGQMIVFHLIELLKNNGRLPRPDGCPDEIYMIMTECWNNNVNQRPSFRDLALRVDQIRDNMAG
Chain of IKKε (Q14164 whole entry): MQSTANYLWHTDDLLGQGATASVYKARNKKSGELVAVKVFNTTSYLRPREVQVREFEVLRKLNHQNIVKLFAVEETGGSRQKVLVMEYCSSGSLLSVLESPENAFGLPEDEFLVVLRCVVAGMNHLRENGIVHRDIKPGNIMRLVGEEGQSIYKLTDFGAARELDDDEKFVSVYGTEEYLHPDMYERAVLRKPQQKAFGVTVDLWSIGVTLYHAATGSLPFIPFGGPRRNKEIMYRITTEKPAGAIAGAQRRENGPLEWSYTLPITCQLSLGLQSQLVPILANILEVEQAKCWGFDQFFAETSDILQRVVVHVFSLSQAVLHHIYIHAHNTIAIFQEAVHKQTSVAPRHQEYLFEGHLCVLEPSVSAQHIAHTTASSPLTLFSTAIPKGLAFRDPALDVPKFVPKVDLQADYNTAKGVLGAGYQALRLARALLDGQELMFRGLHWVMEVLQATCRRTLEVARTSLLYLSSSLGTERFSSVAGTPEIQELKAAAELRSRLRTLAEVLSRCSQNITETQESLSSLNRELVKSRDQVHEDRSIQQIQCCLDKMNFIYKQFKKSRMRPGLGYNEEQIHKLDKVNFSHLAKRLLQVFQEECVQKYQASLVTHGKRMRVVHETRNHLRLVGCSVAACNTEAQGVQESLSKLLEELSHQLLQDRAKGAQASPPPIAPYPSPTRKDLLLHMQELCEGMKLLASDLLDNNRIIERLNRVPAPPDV
Chain of TBK1 (Q9UHD2 whole entry): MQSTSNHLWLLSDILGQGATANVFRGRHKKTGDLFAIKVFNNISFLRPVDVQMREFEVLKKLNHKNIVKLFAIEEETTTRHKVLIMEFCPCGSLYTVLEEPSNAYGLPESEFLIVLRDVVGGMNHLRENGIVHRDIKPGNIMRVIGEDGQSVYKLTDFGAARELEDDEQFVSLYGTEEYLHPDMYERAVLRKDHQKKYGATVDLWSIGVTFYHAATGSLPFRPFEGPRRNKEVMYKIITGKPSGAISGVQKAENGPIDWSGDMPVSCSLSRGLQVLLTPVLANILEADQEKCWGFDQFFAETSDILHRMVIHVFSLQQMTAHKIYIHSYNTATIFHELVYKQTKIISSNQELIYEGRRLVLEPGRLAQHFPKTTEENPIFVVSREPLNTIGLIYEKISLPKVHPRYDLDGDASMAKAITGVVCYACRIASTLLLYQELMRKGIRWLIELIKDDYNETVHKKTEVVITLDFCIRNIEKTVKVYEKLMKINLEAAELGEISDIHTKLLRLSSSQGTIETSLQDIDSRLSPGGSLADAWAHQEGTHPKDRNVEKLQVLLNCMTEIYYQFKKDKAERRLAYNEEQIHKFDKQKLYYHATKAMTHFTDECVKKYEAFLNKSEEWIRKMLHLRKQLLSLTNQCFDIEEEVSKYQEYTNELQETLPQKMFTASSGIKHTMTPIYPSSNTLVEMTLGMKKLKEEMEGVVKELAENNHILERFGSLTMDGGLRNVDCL

For the molecule `C[C@@H]1CN(C2COC2)CCN1c1ccc(Nc2ncnc(-c3ccc(O[C@H]4CCN(C(=O)CO)C[C@H]4F)c(C#N)c3)n2)cc1` [Example 242, 2-(((3R,4S)-3-fluoro-1-(2-hydroxyacetyl)piperidin-4-yl)oxy)-5-(4-((4-((R)-2-methyl-4-(oxetan-3-yl)piperazin-1-yl)phenyl)amino)-1,3,5-triazin-2-yl)benzonitrile], the pIC50 in assay [1] is 8.70; in assay [2], 9.00; in assay [3], 6.60.

As to `C[C@H]1CN(C2COC2)CCN1c1ccc(Nc2ncnc(-c3ccc(O[C@H]4CCN(C(=O)CCO)C[C@H]4F)c(C#N)c3)n2)cc1` [Example 251, 2-(((3R,4S)-3-fluoro-1-(3-hydroxypropanoyl)piperidin-4-yl)oxy)-5-(4-((4-((S)-2-methyl-4-(oxetan-3-yl)piperazin-1-yl)phenyl)amino)-1,3,5-triazin-2-yl)benzonitrile], the pIC50 in assay [1] was 8.30; in assay [2], 7.85; in assay [3] it was 6.43.

With `N#Cc1cc(-c2ncnc(Nc3cnn(C4CCNCC4)c3)n2)ccc1O[C@H]1CCCC[C@H]1F` (racemic) [Example 295, rac-2-(((1S,2R)-2-fluorocyclohexyl)oxy)-5-(4-((1-(piperidin-4-yl)-1H-pyrazol-4-yl)amino)-1,3,5-triazin-2-yl)benzonitrile], the pIC50 in assay [1] is 7.62; in assay [2] it was 8.22; in assay [3] it was 6.81.

As to `COc1cccc(Nc2ncnc(-c3ccc(OC4CCOCC4)c(C#N)c3)n2)c1` [Example 78, 5-(4-((3-methoxyphenyl)amino)-1,3,5-triazin-2-yl)-2-((tetrahydro-2H-pyran-4-yl)oxy)benzonitrile], the pIC50 in assay [1] is 8.22; in assay [2], 7.77; in assay [3], below 6.00.

In the case of `CCOc1ccc(Nc2ncnc(-c3ccc(O[C@H]4CCN(C(=O)[C@@H]5CCC(=O)N5)C[C@H]4F)c(C#N)c3)n2)cn1` [Example 538, 5-(4-((6-ethoxypyridin-3-yl)amino)-1,3,5-triazin-2-yl)-2-(((3R,4S)-3-fluoro-1-((S)-5-oxopyrrolidine-2-carbonyl)piperidin-4-yl)oxy)benzonitrile], the values for the pIC50 in assay [1], in assay [2] (setting [4]) and in assay [3] were 8.15, 7.85 and at most 6.00, respectively.

As to `Cc1cc(C)n(CCOc2ccc(-c3ncnc(Nc4ccc(N5CCN(C6COC6)CC5)cc4)n3)cc2C#N)n1` [Example 609, 2-(2-(3,5-dimethyl-1H-pyrazol-1-yl)ethoxy)-5-(4-((4-(4-(oxetan-3-yl)piperazin-1-yl)phenyl)amino)-1,3,5-triazin-2-yl)benzonitrile], the pIC50 in assay [1] is 6.00; in assay [2] it was at most 6.00; in assay [3] it was 6.63.

Consider `C[C@H](O)C(=O)N1CC(F)C(Oc2ccc(-c3ncnc(Nc4ccc(N5CCN(C6COC6)CC5)cc4)n3)cc2C#N)C(C)(C)C1` (stereo partly drawn) [Example 180, 2-((5-fluoro-1-((S)-2-hydroxypropanoyl)-3,3-dimethylpiperidin-4-yl)oxy)-5-(4-((4-(4-(oxetan-3-yl)piperazin-1-yl)phenyl)amino)-1,3,5-triazin-2-yl)benzonitrile], for which the values for the pIC50 in assay [1], in assay [2] and in assay [3] were 7.96, 7.77 and 6.50, respectively.

On to `Cc1nn(C)c2cc(Nc3ncnc(-c4ccc(O[C@H]5CCN(C(=O)CO)C[C@H]5F)c(C#N)c4)n3)ccc12` [Example 346, 5-(4-((1,3-dimethyl-1H-indazol-6-yl)amino)-1,3,5-triazin-2-yl)-2-(((3R,4S)-3-fluoro-1-(2-hydroxyacetyl)piperidin-4-yl)oxy)benzonitrile], for which the pIC50 in assay [1] was 8.52; in assay [2], 9.00; in assay [3], 6.29.

Turning to `N#Cc1cc(-c2ncnc(Nc3ccc(N4CCN(C5COC5)CC4)cc3)n2)ccc1O[C@H]1CCN(C(=O)c2ccnnc2)C[C@H]1F` [Example 338, 2-(((3R,4S)-3-fluoro-1-(pyridazine-4-carbonyl)piperidin-4-yl)oxy)-5-(4-((4-(4-(oxetan-3-yl)piperazin-1-yl)phenyl)amino)-1,3,5-triazin-2-yl)benzonitrile], the pIC50 in assay [1] is 8.05; in assay [2] it was 7.74; in assay [3] it was 6.88.

`N#Cc1cc(-c2ncnc(Nc3ccc(N4CCN(C5COC5)CC4)cc3)n2)ccc1OC1C2CC1CN(C(=O)CO)C2` (stereo not drawn) [Example 172, 2-((3-(2-hydroxyacetyl)-3-azabicyclo[3.1.1]heptan-6-yl)oxy)-5-(4-((4-(4-(oxetan-3-yl)piperazin-1-yl)phenyl)amino)-1,3,5-triazin-2-yl)benzonitrile]: the pIC50 was 7.14 in assay [1], 6.17 in assay [2] and at most 6.00 in assay [3].

For `N#Cc1cc(-c2ncnc(Nc3ccc(N4CCN(C5COC5)CC4)cc3)n2)ccc1O[C@H]1CCN(C(=O)[C@H]2CC(F)(F)CN2)C[C@H]1F` [Example 132, 2-(((3R,4S)-1-((R)-4,4-difluoropyrrolidine-2-carbonyl)-3-fluoropiperidin-4-yl)oxy)-5-(4-((4-(4-(oxetan-3-yl)piperazin-1-yl)phenyl)amino)-1,3,5-triazin-2-yl)benzonitrile], the results for the pIC50 in assay [1], in assay [2] and in assay [3] were 7.60, 7.29 and at most 6.00, respectively.

Consider `N#Cc1cc(-c2ncnc(Nc3ccc(N4CCN(C5COC5)CC4)cc3)n2)ccc1O[C@H]1CCN(C(=O)c2cocn2)C[C@H]1F` [Example 477, 2-(((3R,4S)-3-fluoro-1-(oxazole-4-carbonyl)piperidin-4-yl)oxy)-5-(4-((4-(4-(oxetan-3-yl)piperazin-1-yl)phenyl)amino)-1,3,5-triazin-2-yl)benzonitrile], for which the pIC50 in assay [1] was 8.52; in assay [2] (setting [4]) it was 8.70; in assay [3] it was 6.28.

Turning to `N#Cc1cc(-c2ncnc(Nc3ccc(N4CCN(C5COC5)CC4)cc3)n2)ccc1O[C@@H]1CCN(C(=O)CCO)C1` [Example 89, (R)-2-((1-(3-hydroxypropanoyl)pyrrolidin-3-yl)oxy)-5-(4-((4-(4-(oxetan-3-yl)piperazin-1-yl)phenyl)amino)-1,3,5-triazin-2-yl)benzonitrile], the pIC50 in assay [1] is 7.80; in assay [2] it was 7.28; in assay [3], 6.44.

For the molecule `Cn1cc(C(=O)N2C[C@@H](F)[C@@H](Oc3ccc(-c4ncnc(Nc5ccc(N6CCN(C7COC7)CC6)cc5)n4)cc3C#N)C(C)(C)C2)nn1` [Example 441, 2-(((4S,5R)-5-fluoro-3,3-dimethyl-1-(1-methyl-1H-1,2,3-triazole-4-carbonyl)piperidin-4-yl)oxy)-5-(4-((4-(4-(oxetan-3-yl)piperazin-1-yl)phenyl)amino)-1,3,5-triazin-2-yl)benzonitrile], the pIC50 is 8.52 in assay [1], 8.70 in assay [2] (setting [4]) and 7.06 in assay [3].

Regarding `COC[C@H](O)C(=O)N1CC[C@H](Oc2ccc(-c3ncnc(Nc4ccc(N5CCN(C6COC6)CC5)cc4)n3)cc2C#N)[C@H](F)C1` [Example 618, 2-(((3R,4S)-3-fluoro-1-((S)-2-hydroxy-3-methoxypropanoyl)piperidin-4-yl)oxy)-5-(4-((4-(4-(oxetan-3-yl)piperazin-1-yl)phenyl)amino)-1,3,5-triazin-2-yl)benzonitrile], the figures for the pIC50 in assay [1], in assay [2] and in assay [3] were 8.70, 9.00 and 6.79, respectively.
